Reference: patent publication EP3046573B1, “AMYLIN ANALOGUES” (Zealand Pharma A/S, priority 2013, dated 2015)

Assay: Assessment of physical stability: fibril formation detected with Thioflavin T (ThT), lag-time
Format: physicochemical
Conditions: 1 mg/ml peptide, 40 µM ThT, FND = Fibrillation not detected
Protocol: Solutions containing (i) 1 mg/ml of test peptide, 40 µM ThT and 50 mM phosphate (Ph) buffer (pH 7.0), (ii) 1 mg/ml of test peptide, 40 µM ThT and 50 mM histidine (His) buffer (pH 7.0), and (iii) 1 mg/ml of test peptide, 40 µM ThT and 50 mM acetate (Ac) buffer (pH 4.0), were loaded in a 96-well black fluorescence plate (clear bottom) in triplicate. Data were collected at fixed intervals of 10 min, each preceded by 300 s of automixing (agitation), over a period of 96 hours at 40° C. Physical stability, expressed as lag-time of fibril formation (in hours), was defined as the intersection between two linear regressions representing the initial stable phase and the growth phase.

CC[C@H](C)[C@H](NC(=O)[C@@H]1CCCN1C(=O)CNC(=O)[C@H](Cc1ccccc1)NC(=O)[C@H](CC(N)=O)NC(=O)[C@H](CC(N)=O)NC(=O)[C@H](CO)NC(=O)[C@H](CO)NC(=O)[C@H](Cc1c[nH]cn1)NC(=O)[C@@H](NC(=O)[C@H](CC(C)C)NC(=O)[C@H](Cc1ccccc1)NC(=O)[C@H](CC(N)=O)NC(=O)[C@H](C)NC(=O)[C@H](CC(C)C)NC(=O)[C@H](CCCNC(=N)N)NC(=O)[C@H](CCC(N)=O)NC(=O)[C@@H](NC(=O)[C@H](C)NC(=O)[C@@H]1CSSC[C@H](NC(=O)[C@@H](N)CCCCN)C(=O)N[C@@H](CC(N)=O)C(=O)N[C@@H]([C@@H](C)O)C(=O)N[C@@H](C)C(=O)N[C@@H]([C@@H](C)O)C(=O)N1)[C@@H](C)O)C(C)C)C(=O)N[C@@H](CC(C)C)C(=O)N1CCC[C@H]1C(=O)N1CCC[C@H]1C(=O)N[C@H](C(=O)N[C@@H](CC(N)=O)C(=O)N[C@H](C(=O)NCC(=O)N[C@@H](CO)C(=O)N[C@@H](CC(N)=O)C(=O)N[C@H](C(=O)N[C@@H](Cc1ccc(O)cc1)C(N)=O)[C@@H](C)O)C(C)C)[C@@H](C)O [pramlin tide]
Fibrillation lag time (hours) pH 4.0 (Ac) (50 mM acetate buffer pH 4.0, 96 hours at 40°C): 48 hours | Fibrillation lag time (hours) pH 7.0 (Ph) (50 mM phosphate buffer pH 7.0, 96 hours at 40°C): 2 hours
